In patent US9108983B2, “Pyrrole compounds, a process for their preparation and pharmaceutical compositions containing them” (LES LABORATOIRES SERVIER, priority 2013, dated 2015):
Counter-ions that a name gives are not always drawn. Like-named read-outs stand apart in the source and are kept apart here.

Tests used:
[1] = system: RS4;11 leukaemia tumour line; assay: In vitro cytotoxicity (Microculture Tetrazolium Assay); type: cell-based; conditions: RS4;11 cells, exposed for 48 hours, cell viability, read-out: IC50 (nM) MTT RS4;11
Protocol: The cytotoxicity studies were carried out on the RS4;11 leukaemia tumour line.
The cells are distributed onto microplates and exposed to the test compounds for 48 hours.
The cell viability is then quantified by a colorimetric assay, the Microculture Tetrazolium Assay (Cancer Res., 1987, 47, 939-942).

Bcl-2 protein = Bcl-2 protein (histag-Bcl-2, UniProtKB P10415) (Homo sapiens (Human), UniProt P10415); assay: Inhibition of Bcl-2 by the fluorescence polarisation technique; type: binding; conditions: incubation for 2 hours, read-out: IC50 (nM) Bcl-2 FP
Protocol: The fluorescence polarisation tests were carried out on microplates (384 wells). The Bcl-2 protein, labelled (histag-Bcl-2 such that Bcl-2 corresponds to the UniProtKB® primary accession number: P10415), at a final concentration of 2.50×10^−8 M, is mixed with a fluorescent peptide (Fluorescein-[…]), at a final concentration of 1.00×10^−8 M in a buffer solution (Hepes 10 mM, NaCl 150 mM, Tween20 0.05%, pH 7.4), in the presence or absence of increasing concentrations of test compounds. After incubation for 2 hours, the fluorescence polarisation is measured.

Chain of Bcl-2 protein (P10415 whole entry): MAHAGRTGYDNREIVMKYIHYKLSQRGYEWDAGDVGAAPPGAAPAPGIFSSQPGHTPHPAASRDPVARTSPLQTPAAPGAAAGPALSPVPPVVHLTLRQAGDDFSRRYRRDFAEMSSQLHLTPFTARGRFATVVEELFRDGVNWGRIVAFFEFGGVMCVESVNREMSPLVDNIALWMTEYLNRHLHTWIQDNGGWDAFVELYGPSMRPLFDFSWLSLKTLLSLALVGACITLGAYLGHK

| Compound | IC50 (Bcl-2 protein) | IC50 ([1]; Homo sapiens, RS4-11, 48 h) | IC50 [1] |
| --- | --- | --- | --- |
| Cc1ccc(N(C(=O)c2cc(-c3cc4c(cc3C(=O)N3Cc5ccccc5C[C@H]3CN3CCOCC3)OCO4)n(C)c2C)c2ccc(O)cc2)cc1F [Example 13, N-(3-Fluoro-4-methylphenyl)-N-(4-hydroxyphenyl)-1,2-dimethyl-5-(6-{[(3S)-3-(morpholin-4-ylmethyl)-3,4-dihydroisoquinolin-2(1H)-yl]carbonyl}-1,3-benzodioxol-5-yl)-1H-pyrrole-3-carboxamide hydrochloride] | 4.4 nM | 19.8 nM |  |
| Cc1c(C(=O)N(c2ccc(O)cc2)c2cnn(C)c2)cc(-c2cc(Cl)ccc2C(=O)N2Cc3ccccc3C[C@H]2C)n1CCN1CCOCC1 [Example 411, 5-(5-Chloro-2-{[(3R)-3-methyl-3,4-dihydroisoquinolin-2(1H)-yl]carbonyl}phenyl)-N-(4-hydroxyphenyl)-2-methyl-N-(1-methyl-1H-pyrazol-4-yl)-1-[2-(morpholin-4-yl)ethyl]-1H-pyrrole-3-carboxamide hydrochloride] | 5.5 nM | 32.8 nM |  |
| Cc1c(C(=O)N(c2ccccc2)c2ccc(O)cc2)cc(-c2cc3c(cc2C(=O)N2Cc4ccccc4C[C@H]2CCN2CCOCC2)OCO3)n1CCO [Example 18, 1-(2-Hydroxyethyl)-N-(4-hydroxyphenyl)-2-methyl-5-(6-{[(3S)-3-[2-(morpholin-4-yl)ethyl]-3,4-dihydroisoquinolin-2(1H)-yl]carbonyl}-1,3-benzodioxol-5-yl)-N-phenyl-1H-pyrrole-3-carboxamide hydrochloride] | 3.9 nM | 27.6 nM |  |
| COc1ncc(N(C(=O)c2cc(-c3cc4c(cc3C(=O)N3Cc5ccccc5C[C@H]3CN3CCOCC3)OCO4)n(C)c2C)c2ccc(O)cc2)cn1 [Example 50, N-(4-Hydroxyphenyl)-N-(2-methoxypyrimidin-5-yl)-1,2-dimethyl-5-(6-{[(3S)-3-(morpholin-4-ylmethyl)-3,4-dihydroisoquinolin-2(1H)-yl]carbonyl}-1,3-benzodioxol-5-yl)-1H-pyrrole-3-carboxamide hydrochloride] | 5.9 nM | 33.1 nM |  |
| Cc1c(C(=O)N(c2ccccc2)c2ccc(O)cc2)cc(-c2cc3c(cc2C(=O)N2Cc4ccccc4C[C@H]2C)OCO3)n1CCN1CCOCC1 [Example 97, N-(4-Hydroxyphenyl)-2-methyl-5-(6-{[(3R)-3-methyl-3,4-dihydroisoquinolin-2(1H)-yl]carbonyl}-1,3-benzodioxol-5-yl)-1-[2-(morpholin-4-yl)ethyl]-N-phenyl-1H-pyrrole-3-carboxamide hydrochloride] | 19 nM | 98 nM |  |
| COc1ccc(N(C(=O)c2cc(-c3cc(Cl)ccc3C(=O)N3Cc4ccccc4C[C@H]3CN3CCOCC3)n(C)c2C)c2ccc(O)cc2)cc1C#N [Example 395, 5-(5-Chloro-2-{[(3S)-3-(morpholin-4-ylmethyl)-3,4-dihydroisoquinolin-2(1H)-yl]carbonyl}phenyl)-N-(3-cyano-4-methoxyphenyl)-N-(4-hydroxyphenyl)-1,2-dimethyl-1H-pyrrole-3-carboxamide hydrochloride] | 3.5 nM | 7.57 nM |  |
| Cc1c(C(=O)N(c2ccc(O)cc2)c2cccc(C#N)n2)cc(-c2cc(Cl)ccc2C(=O)N2Cc3ccccc3C[C@H]2CN2CCOCC2)n1C [Example 109, 5-(5-Chloro-2-{[(3S)-3-(morpholin-4-ylmethyl)-3,4-dihydroisoquinolin-2(1H)-yl]carbonyl}phenyl)-N-(6-cyanopyridin-2-yl)-N-(4-hydroxyphenyl)-1,2-dimethyl-1H-pyrrole-3-carboxamide hydrochloride] | 91.5 nM | 930 nM |  |
| Cc1c(C(=O)N(c2ccc(O)cc2)c2cnc(F)cn2)cc(-c2cc(Cl)ccc2C(=O)N2Cc3ccccc3C[C@H]2CN2CCOCC2)n1C [Example 446, 5-(5-Chloro-2-{[(3S)-3-(morpholin-4-ylmethyl)-3,4-dihydroisoquinolin-2(1H)-yl]carbonyl}phenyl)-N-(5-fluoropyrazin-2-yl)-N-(4-hydroxyphenyl)-1,2-dimethyl-1H-pyrrole-3-carboxamide hydrochloride] | 7.8 nM | 249 nM |  |
| Cc1c(C(=O)N(c2ccc(O)cc2)c2cnc3c(ccn3C)c2)cc(-c2cc3c(cc2C(=O)N2Cc4ccccc4C[C@H]2CN2CCOCC2)OCO3)n1C [Example 44, N-(4-Hydroxyphenyl)-1,2-dimethyl-N-(1-methyl-1H-pyrrolo[2,3-b]-pyridin-5-yl)-5-(6-{[(3S)-3-(morpholin-4-ylmethyl)-3,4-dihydroisoquinolin-2(1H)-yl]carbonyl}-1,3-benzodioxol-5-yl)-1H-pyrrole-3-carboxamide hydrochloride] | 3 nM | 5.41 nM |  |
| Cc1c(C(=O)N(c2ccc(O)cc2)c2ccc3c(cnn3C)c2)cc(-c2cc3c(cc2C(=O)N2Cc4ccccc4C[C@H]2CN2CCOCC2)OCO3)n1C [Example 14, N-(4-Hydroxyphenyl)-1,2-dlmethyl-N-(1-methyl-1H-indazol-5-yl)-5-(6-{[(3S)-3-(morpholil-4-ylmethyl)-3,4-dihydroisoquinolin-2(1H)-yl]carbonyl}-1,3-benzodioxol-5-yl)-1H-pyrrole-3-carboxamide hydrochloride] | 3.7 nM |  | 8.23 nM |
| Cc1c(N(C(=O)c2cc(-c3cc(Cl)ccc3C(=O)N3Cc4ccccc4C[C@H]3CCCN3CCOCC3)n(C)c2C)c2ccc(O)cc2)cc(C#N)n1C [Example 412, 5-(5-Chloro-2-{[(3R)-3-[3-(morpholin-4-yl)propyl]-3,4-dihydroisoquinolin-2(1H)-yl]carbonyl}phenyl)-N-(5-cyano-1,2-dimethyl-1H-pyrrol-3-yl)-N-(4-hydroxyphenyl)-1,2-dimethyl-1H-pyrrole-3-carboxamide hydrochloride] | 3.1 nM | 0.398 nM |  |
| COCCc1c(C(=O)N(c2ccc(O)cc2)c2cnc3c(ccn3C)c2)cc(-c2cc3c(cc2C(=O)N2Cc4ccccc4C[C@H]2CN2CCOCC2)OCO3)n1C [Example 88, N-(4-Hydroxyphenyl)-2-(2-methoxyethyl)-1-methyl-N-(1-methyl-1H-pyrrolo[2,3-b]pyridin-5-yl)-5-(6-{[(3S)-3-(morpholin-4-ylmethyl)-3,4-dihydroisoquinolin-2(1H)-yl]carbonyl}4,3-benzodioxol-5-yl)-1H-pyrrole-3-carboxamide hydrochloride] | 15.9 nM |  | 69.6 nM |

Now from value to molecule, other results behind:

| IC50 (Bcl-2 protein) | Compound | IC50 ([1]; Homo sapiens, RS4-11, 48 h) | IC50 [1] |
| --- | --- | --- | --- |
| 5 nM | Cc1c(C(=O)N(c2ccc(O)cc2)c2cnn(C)c2)cc(-c2cc(Cl)ccc2C(=O)N2Cc3ccccc3C[C@H]2C)n1C [Example 1, 5-(5-Chloro-2-{[(3R)-3-methyl-3,4-dihydroisoquinolin-2(1H)-yl]carbonyl}phenyl)-N-(4-hydroxyphenyl)-1,2-dimethyl-N-(1-methyl-1H-pyrazol-4-yl)-1H-pyrrole-3-carboxamide] | 33.6 nM |  |
| 22.4 nM | CN1CCN(C[C@@H]2Cc3ccccc3CN2C(=O)c2cc3c(cc2-c2cc(C(=O)N(c4ccc(O)cc4)c4ccc5c(ccn5C)c4)cn2C)OCO3)CC1 [Example 9, N-(4-Hydroxyphenyl)-1-methyl-N-(1-methyl-1H-indol-5-yl)-5-(6-{[(3S)-3-[(4-methylpiperazin-1-yl)methyl]-3,4-dihydroisoquinolin-2(1H)-yl]carbonyl}-1,3-benzodioxol-5-yl)-1H-pyrrole-3-carboxamide hydrochloride] | 87.5 nM |  |
| 4.6 nM | Cc1c(C(=O)N(c2ccc(O)cc2)c2cnn(C)c2)cc(-c2cc(Cl)ccc2C(=O)N2Cc3ccccc3C[C@H]2CN2CC3(CCO3)C2)n1C [Example 207, 5-(5-Chloro-2-{[(3S)-3-(1-oxa-6-azaspiro[3.3]hept-6-ylmethyl)-3,4-dihydroisoquinolin-2(1H)-yl]carbonyl}phenyl)-N-(4-hydroxyphenyl)-1,2-dimethyl-N-(1-methyl-1H-pyrazol-4-yl)-1H-pyrrole-3-carboxamide] | 32.2 nM |  |
| 2.9 nM | Cc1c(C(=O)N(c2ccc(O)cc2)c2cnc3c(cnn3C)c2)cc(-c2cc(F)ccc2C(=O)N2Cc3ccccc3C[C@H]2CN2CCOCC2)n1C [Example 451, 5-(5-Fluoro-2-{[(3S)-3-(morpholin-4-ylmethyl)-3,4-dihydroisoquinolin-2(1H)-yl]carbonyl}phenyl)-N-(4-hydroxyphenyl)-1,2-dimethyl-N-(1-methyl-1H-pyrazolo[3,4-b]pyridin-5-yl)-1H-pyrrole-3-carboxamide hydrochloride] | 102 nM |  |
| 5.2 nM | Cc1c(C(=O)N(c2ccc(O)cc2)c2cnn(C)c2)cc(-c2cc3c(cc2C(=O)N2Cc4ccccc4C[C@H]2C)OCO3)n1CCN(C)C [Example 27, 1-[2-(Dimethylamino)ethyl]-N-(4-hydroxyphenyl)-2-methyl-5-(6-{[(3R)-3-methyl-3,4-dihydroisoquinolin-2(1H)-yl]carbonyl}-1,3-benzodioxol-5-yl)-N-(1-methyl-1H-pyrazol-4-yl)-1H-pyrrole-3-carboxamide hydrochloride] | 93.4 nM |  |
| 3.4 nM | Cc1c(N(C(=O)c2cc(-c3cc(Cl)ccc3C(=O)N3Cc4ccccc4C[C@H]3CN3CCOCC3)n(C)c2C)c2ccc(O)cc2)cnn1C [Example 432, 5-(5-Chloro-2-{[(3S)-3-(morpholin-4-ylmethyl)-3,4-dihydroisoquinolin-2(1H)-yl]carbonyl}phenyl)-N-(1,5-dimethyl-1H-pyrazol-4-yl)-N-(4-hydroxyphenyl)-1,2-dimethyl-1H-pyrrole-3-carboxamide hydrochloride] | 76.6 nM |  |
